Measured values published in US20250257364A1, “RNA-GUIDED DNA TRANSPOSITION” (priority 2024, published 2025).

Legend:
[1] = test system: E. coli murA CRISPRtOE strains vs lacZ controls; experiment: CRISPRtOE pooled library competitive growth assay with fosfomycin; format: cell-based, E. coli K-12; conditions: fosfomycin 0.4 μg/ml, ~10-15 doublings
Method: (§1) CRISPRtOE library growth experiments. Competition experiment growth. The E. coli CRISPRtOE murA and folA libraries were mixed in equal volume with the LP-lacZ library: 50 μl frozen stock (OD600=10) of each library (murA+LP-lacZ and folA+LP-lacZ) into 100 ml LB (starting OD600=0.01) in a 500 ml flask and incubated shaking at 37° C. until OD600=0.2 (˜2.5 h) (timepoint=T0) to revive the cells. […] (T1). These cultures were serially diluted back to OD600=0.01 into fresh tubes containing the same media and incubated again with shaking for 18 h at 37° C. (T2) for a total of ˜10-15 doublings. Cells were pelleted from 15 ml of culture in duplicate at each time point T0 and 1 ml of culture at timepoints T1 and T2 and stored at −20° C.
(§2) To test for overexpression phenotypes, the folA or murA library was mixed 50:50 with the lacZ control library and cells were grown in the presence/absence of TMP or FOS, respectively.

[2] = test system: E. coli folA CRISPRtOE strains vs lacZ controls
Method: as §1, §2

[3] = test system: E. coli whole genome CRISPRtOE library (promoter H)
Method: Whole genome experiment growth. The E. coli CRISPRtOE whole genome libraries with no promoter (sJMP10704) or promoter H (sJMP10705) were revived by dilution of 100 μl frozen stock (OD600=15) into 100 ml LB (starting OD600=0.015) and incubation in 500 ml flasks shaking at 37° C. until OD600=0.2 (˜2.5 h) (timepoint=TO). […] (T1). These cultures were serially diluted back to OD600=0.01 into fresh tubes containing the same media and incubated again with shaking for 18 h at 37° C. (T2) for a total of ˜10-15 doublings. Cells were pelleted from 15 ml of culture in duplicate at time point TO and 1 ml of culture at timepoints T1 and T2 and stored at −20° C.
A custom Python script (counting_spacers.py) was used to determine the number of times each spacer appeared in the filtered alignment file. […] Pairwise comparison of spacer counts in DMSO and TMP treatment samples was performed using edgeR^70 and a custom Rscript (comparison_of_spacer_counts_edgeR.R). The results were plotted using a custom Rscripts (plotting_scatter_plot.R, barplot_with_points.R, scatter_plot_commands.R). […]
To test the ability of CRISPRtOE to identify antibiotic-relevant gene phenotypes at the genome-scale, the libraries were grown in the presence or absence of a sub-lethal concentration of TMP and relative strain abundance was measured.

[4] = test system: E. coli folA CRISPRtOE isolates vs parent strains; conditions: TMP 0.04-20 μg/ml, MHB, 20 h
Method: MIC assays. The minimal inhibitory concentration (MIC) of E. coli folA and murA CRISPRtOE isolates was determined by either growth in a microtiter plate or by disc diffusion assays, respectively. For the broth microdilution assay, CRISPRtOE isolates and WT controls were grown to saturation from an isolated colony and serially diluted to OD600=0.003) and the CRISPRtOE library was diluted from a glycerol stock to the same density. […] E. coli folA CRISPRtOE isolates, the folA CRISPRtOE library, a lacZ CRISPRtOE control, and WT cultures and the media containing antibiotic were mixed in equal proportions and incubated 20 h shaking at 37° C. prior to cell density (OD600) determination in a microplate reader. For the MIC strip assays, E. coli folA or murA CRISPRtOE isolates, a lacZ CRISPRtOE control, and WT cultures were diluted to OD600=0.3 and 300 μl was spread on a 100 mm MH agar plate and dried in a laminar flow cabinet. When dry, MIC strips (Liofilchem, Italy; 920371 (TMP 0.002-32 mg/L) and 920791(FOS 0.064-1024 mg/L)) were applied to the plate and 10 μl serially diluted antibiotics were applied to the discs. Plates were incubated at 37° C. for 18 h. Broth microdilution assays were repeated 3 times and MIC test strip assays twice.

lacZ = experiment: CRISPRt disruption of lacZ, blue-white screening of transconjugants; format: cell-based, E. coli K-12; conditions: lacZ targeted
Method: Transfer of the CRISPRt/CRISPRtOE system to the bacterial chromosome. CRISPRt and CRISPRtOE strains were constructed by triparental mating of two E. coli donor strains-one with the pCRISPRt-H plasmid encoding Cas678-TniQ-TnsABC and another with the pCRISPRt-T or pCtOE plasmid containing the transposon with the guide RNA and antibiotic resistance- and a recipient strain (Table 1). All conjugations and selection post-conjugation were carried out at 30° C. regardless of the normal incubation temperature for the organism. Isolated donor and recipient strains were struck out on plates with the appropriate media and antibiotic (if relevant) concentrations. Colonies were resuspended from plates into the growth medium used for the recipient to a density of OD600=9. […]
For lacZ targeted CRISPRt, the color of 80 individual colonies was determined by patching on LB agar plates containing X-gal (20 μg/ml). […]
To test the precision of CRISPRt, both endogenous (lacZ) and heterologous (gfp) reporter genes were targeted for disruption in E. coli K-12 (data not shown). […] Next, targeting on the genome scale was determined by sequencing genomic DNA at the Tn6677 transposon junction (Tn-seq) using Illumina®-based Next Generation Sequencing (NGS). […]

E. coli genome = experiment: Tn-seq of CRISPRt transposon insertion sites (specificity, orientation); format: cell-based, E. coli K-12; conditions: insertions ~49 bp downstream of protospacer
From the text: FIGS. 1a-e illustrate a mobilizable, selectable, dual-plasmid system for CRISPR-guided transposition. 1a. Schematic of a targeted transposition gene knockout (CRISPRt) and gene overexpression (CRISPRtOE) system optimized for functional genomics. 1b. Schematic of mechanism of Vibrio cholera Type I-F CRISPR-associated transposon (Vc CAST) system. 1c. Schematic of strain construction using the CRISPRt targeted transposition system. Plasmids have pir-dependent origins of replication preventing replication in the bacterial recipient. […] Inside the recipient cell, the transposon (flanked in yellow) is inserted onto the chromosome at a site determined by the sequence of the guide RNA. […] Specificity of CRISPRt disruption of gfp and lacZ in E. coli measured by Tnseq. Mapping of location of transposon insertion sites to the E. coli genome after CRISPRt targeted transposition with gfp1 guide (226,671 reads) or LZ1 guide (216,801 reads). […]
Tnseq analysis of CRISPRt/CRISPRtOE constructs. […] PCR products were spin-purified (eluted in 15 μl) and quantified fluorometrically. […] Briefly, PCR products were amplified with nested primers containing i5 and i7 indexes and Illumina® TruSeq™ adapters followed by bead cleanup, quantification, pooling and running on a NovaSeq X Plus (150 bp paired end reads) or MiSeq (250 bp paired end reads). […]

## C[C@@H]1O[C@@H]1P(=O)(O)O [FOS, fosfomycin]
[1]
  increase in abundance of murA OE strains relative to lacZ controls: 52 fold

## COc1cc(Cc2cnc(N)nc2N)cc(OC)c1OC [TMP, trimethoprim]
[2]
  increase in abundance of folA OE strains relative to lacZ controls: 22 fold
[3]
  enrichment of folA-associated spacers: > 1000 fold
[4]
  shift in MIC between parent strains and folA CRISPRtOE isolates: 15 to 30 fold

## lacZ: gRNA spacer LZ1 (Petassi, PMID: 33271061), SEQ ID NO: 16, targeting lacZ (guide CAACTTAATCGCCTTGCAGCACATCCCCCTTT; chemistry not given here)
lacZ
  transconjugants showing the expected disruption phenotype: 100%
E. coli genome
  insertions in R-L orientation: 74.1%
